Here are results for 1 molecule from patent US12298308B2, “Neoadjuvant chemotherapy induces breast cancer metastasis through a TMEM-mediated mechanism” (Albert Einstein College of Medicine, priority 2017, dated 2025).

Each structure is given as a SMILES string.

Common to all, as to assay type: in vivo, mouse
Assay [1] deals with TMEM. The assay can be described thus: Intravital imaging of TMEM-dependent vascular permeability (bursting). From the text: Paclitaxel Induces TMEM-Dependent Vascular Permeability in Breast Tumors—Given that chemotherapy treatment may affect blood vessel dynamics by inducing angiogenesis (9, 11-13, 35-37), intravital imaging (IVI) (FIG. 2A) was used to investigate whether neoadjuvant paclitaxel induces TMEM-dependent (localized) or TMEM-independent (more universal) blood vessel leakage. […] As also reported previously (1), we never observed any bursting incidents without juxtaposition to a clearly defined TMEM site. Bursting was documented by the accumulation of Dextran-TMR signal over time around an active TMEM site, and no such accumulation was observed away from TMEM (FIGS. 2B-C). The entire time-lapse of these was recorded in videos, respectively. The intensity values from all TMEM-mediated bursting incidents observed in paclitaxel-treated mice were averaged and plotted over the entire time of bursting activity (FIG. 2D), which confirmed the transient nature of paclitaxel-induced TMEM-dependent vascular permeability.
Drug Administration. The following drugs were administered in mice: Paclitaxel was given at 10 mg/Kg i.v every 5 days for 2 weeks; Doxorubicin was given at 5 mg/Kg i.v. every 5 days for 2 weeks; Cyclophosphamide was given at 120 mg/Kg i.p. only once; Rebastinib was given at 10 mg/Kg per os, every 3-4 days for 4 weeks.
Intravital Imaging. Intravital imaging was performed using a custom-built two-laser multiphoton microscope, as previously described (57). Mice were anesthetized using 0.75-2.5% isofluorane, depilated. A skin flap procedure, previously developed (58), was performed by exposing the 4th or 5th mammary fat pad. Given the early stage of carcinoma and small tumor size, this necessitated the development of a custom fixturing technique where the exposed tissue was stabilized by affixing the edge of a 10-mm window fitted with an 8-mm clear aperture respectively with cyanoacrylate. The mouse was then placed on a fixturing plate, fitted to the respective window, on the microscope xy stage and imaging was performed in the center of the window away from the glue. The animal was placed in a heated chamber, AirTherm ATX forced air heater (WPI Inc.), maintained at physiologic temperature during the course of imaging, and supplemented with 50-100 uL of PBS per hour via the tail vein catheter. As previously described (1), three milligrams of 155-kDa TMR-dextran (Sigma) were administered via the catheter to visualize the vasculature. All images were reconstructed and analyzed in ImageJ (59), as described in Supplementary Methods.

The subject of the next assay is lung metastases. The assay can be described thus: Lung metastasis and single cancer cell dissemination in lungs. From the text: To further determine the effect of paclitaxel on cancer cell dissemination to distant sites, we harvested lungs and evaluated metastatic foci histologically. An increase was found in both the metastatic incidence (>1 micrometastatic focus of >5 tumor cells) (FIG. 3H) and the number of cancer cell micrometastases in the lungs of paclitaxel-treated mice (FIG. 3I). In addition, we quantified single cell dissemination of breast cancer cells in the lungs of FVB-recipient mice after syngeneic transplantation of MMTV-PyMT/Dendra2^+ tumors using ex vivo microscopy, and found an approximately 2-fold increase (p<0.01) of single Dendra2^+ breast cancer cells in the lungs of paclitaxel-treated mice (FIG. 3J). Overall, data presented in this section indicate that in early-stage breast cancers chemotherapy increases vascular permeability at TMEM sites which is accompanied by increased cancer cell dissemination.
Histology and TMEM Immunohistochemistry.

The subject of assay [2] is TMEM. The assay can be described thus: Extravascular Dextran-TMR in fixed tumor sections (multichannel IF). The protocol: In a second independent validation experiment, a group of vehicle- or paclitaxel-treated mice received an i.v injection of Dextran-TMR for 1 hour and then sacrificed and evaluated for vascular permeability in fixed tumor sections (FIG. 2A). Multichannel IF staining included endomucin as a blood vessel exclusion mask and a specific anti-TMR antibody for assessing dextran leakage. A corresponding TMEM IHC staining section was co-aligned to evaluate the presence/absence of TMEM in each vascular profile that presented with vascular leakage. […] For quantification purposes, ˜20-30 vascular profiles were selected for each mouse, based on tissue size, degree of vascularization and quality of endomucin staining. […]
Paclitaxel Increases Metastatic Dissemination of Breast Tumors—To assess if paclitaxel treatment promotes tumor cell dissemination and metastatic incidence, we first quantified and compared incidence and frequency of bursting in mice treated with vehicle or paclitaxel, using IVI (FIGS. 3A-C). […] The same conclusions were reached when frequency of bursting was normalized to the number of TMEM sites, as measured in each field. […] In addition to IVI, extravascular dextran area was quantified and compared as % normalized to the blood vessel area in fixed tumors of mice treated with either vehicle or paclitaxel, using multichannel IF. […]

`CC(=O)O[C@H]1C(=O)[C@@]2(C)[C@H]([C@H](OC(=O)c3ccccc3)[C@]3(O)C[C@H](OC(=O)[C@H](O)[C@@H](NC(=O)c4ccccc4)c4ccccc4)C(C)=C1C3(C)C)[C@]1(OC(C)=O)CO[C@@H]1C[C@@H]2O` [paclitaxel]: the “generalized blood vessel leakage of 155-KDa dextran into the extravascular space” value in the assay on TMEM [1] (intravital imaging, paclitaxel-treated mice) was “did not demonstrate generalized blood vessel leakage”. In the assay on TMEM [1] (vs vehicle control), the frequency of bursting entry was “increased” and the “incidence of bursting (at least 1 bursting event in a ~4.5-hour imaging session)” value was “increased”. The “increase of single Dendra2^+ breast cancer cells in the lungs” value in the assay on lung metastases (FVB recipients of MMTV-PyMT/Dendra2^+ tumors, ex vivo microscopy, p<0.01) is “approximately 2 fold”. Besides, the “disseminated cells in the lungs” value in the assay with lung metastases (Mena^-/- PyMT-CFP transplants) was “failed to boost”. In the assay on lung metastases (histological evaluation), the “metastatic incidence (>1 micrometastatic focus of >5 tumor cells) in lungs” value is “increase” and the “number of cancer cell micrometastases in the lungs” value was “increase”. The “vascular profiles with extravascular dextran co-localized with at least 1 TMEM” value with TMEM [2] (fixed tumor sections, Dextran-TMR i.v. for 1 hour) is given as 96-98%. In the assay with TMEM [2] (fixed tumors, p<0.05), the “extravascular dextran area normalized to blood vessel area, fold vs vehicle-treated” value was found to be 3 fold.
